# Earlier results in US7943127B2 (priority 2004, dated 2011).
# Conditions: in vivo, iv
compound,measurement,value
"COc1cc(CNC(=O)CCCC/C=C/C(C)C)ccc1O [Capsaicin, (E)-N-((4-Hydroxy-3-methoxyphenyl)-methyl)-8-methyl-6-nonenamide]",lethal toxic dose,about 0.56 mg/kg
